Data reported in patent EP4061322B1 (Institut des Sciences et Industries du Vivant et de …, priority 2019, dated 2021).
Where two headings read alike, the source gives them in different places.

Tests used:
[1] = UV-Vis absorption spectrum (anti-UVA and blue light properties); assay type: physicochemical; set-up: λmax: unit not given here
From the text: Un spectre UV-Vis a été réalisé dans l'éthanol à 10^-5 mol/L pour les composés 1 à 7, qui sont des dérivés furaniques de l'acide de Medrum. L'Avobenzone, une molécule très largement utilisée comme filtre UVA dans les crèmes solaires, a été utilisée en tant que référence.
Cette méthodologie a été employée pour évaluer les propriétés anti-UV des composés 8 à 11, qui sont des dérivés phénoliques de l'acide de Medrum, des composés 12 à 15 qui sont des dérivés pyrroliques de l'acide de Meldrum, des composés 16 à 18 qui sont des dérivés vinylphénol de l'acide de Meldrum, le composé 19 qui est un dérivé vinylfurane de l'acide de Meldrum.

[2] = Antioxidant properties (IC50 compared with BHA and BHT); assay type: biochemical
From the text: Les propriétés anti-oxydantes des composés 8 à 11 ont été évaluées par comparaison de leur IC50 avec celles de deux molécules de référence que sont la BHA et le BHT. Ces deux molécules sont très largement utilisées dans les formulations cosmétiques bien qu'elles soient controversées pour leur effet potentiellement cancérigène.

[3] = Photostability under UV exposure; assay type: physicochemical; conditions: for A (t=0 min): absorbance before UV exposure
From the text: La stabilité des composés 1 à 7 aux UV a été étudiée par soumission à une exposition (λ : 300 nm, P : 8.32 W/m^2) pendant une heure.
L'Avobenzone a été utilisée comme molécule de référence. Cette molécule est connue pour être […] sous exposition UV, ce qui n'est pas du tout le cas d'autres composés bio-sourcés.
La photostabilité des composés 8 à 11 a également été étudiée, de manière identique au test appliqué aux composés 1 à 7. Les résultats obtenus sont présentés dans le Tableau 2. […] Cette méthodologie a été appliquée à l'ensemble des molécules décrites ci-dessus. Tableau 2 : Stabilité des composés 8 à 11 soumis à une exposition aux UV.

[4] = biological target: T1, ERα (récepteur œstrogène alpha) (Homo sapiens, UniProt P03372); assay: Endocrine system: receptor activity in presence of compound and reference molecule (antagonist effect); assay type: cell-based; conditions: Figure 7; with reference molecule; even at the highest concentrations
T1 sequence (P03372 1-595): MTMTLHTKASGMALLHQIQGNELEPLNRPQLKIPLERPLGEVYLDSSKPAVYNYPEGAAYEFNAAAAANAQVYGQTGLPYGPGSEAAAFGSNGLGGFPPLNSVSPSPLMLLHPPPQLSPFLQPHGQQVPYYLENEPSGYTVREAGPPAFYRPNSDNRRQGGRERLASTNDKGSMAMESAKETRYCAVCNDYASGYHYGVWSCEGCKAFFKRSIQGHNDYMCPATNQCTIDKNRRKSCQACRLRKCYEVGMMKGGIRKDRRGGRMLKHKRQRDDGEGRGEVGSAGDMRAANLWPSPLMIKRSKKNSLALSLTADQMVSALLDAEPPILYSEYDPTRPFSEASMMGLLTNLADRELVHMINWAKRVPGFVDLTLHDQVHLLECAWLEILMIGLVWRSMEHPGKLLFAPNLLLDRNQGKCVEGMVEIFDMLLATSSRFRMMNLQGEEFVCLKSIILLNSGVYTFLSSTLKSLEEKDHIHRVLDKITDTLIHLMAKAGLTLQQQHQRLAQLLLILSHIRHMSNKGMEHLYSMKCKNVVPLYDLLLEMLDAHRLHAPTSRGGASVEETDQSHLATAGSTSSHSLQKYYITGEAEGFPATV
From the text: (§1) L'effet des composés 1 et 4 sur le système endocrinien a été évalué pour leurs propriétés agonistes et antagonistes sur différents récepteurs : ERα (récepteur œstrogène alpha), AR (récepteur des androgènes) et PXR (pregnane X receptor). Un premier test consiste à étudier l'activité des récepteurs en présence du composé 1 ou 4 (effet agoniste). […] Un second test vise à l'étude de l'activité des récepteurs en présence du composé 1 ou 4 et d'une molécule de référence pour chaque récepteur (effet antagoniste).

[5] = biological target: T2, AR (récepteur des androgènes) (Homo sapiens, UniProt P10275); assay: as above; assay type: cell-based; conditions: Figure 8; with reference molecule; even at the highest concentrations
T2 sequence (P10275 1-920): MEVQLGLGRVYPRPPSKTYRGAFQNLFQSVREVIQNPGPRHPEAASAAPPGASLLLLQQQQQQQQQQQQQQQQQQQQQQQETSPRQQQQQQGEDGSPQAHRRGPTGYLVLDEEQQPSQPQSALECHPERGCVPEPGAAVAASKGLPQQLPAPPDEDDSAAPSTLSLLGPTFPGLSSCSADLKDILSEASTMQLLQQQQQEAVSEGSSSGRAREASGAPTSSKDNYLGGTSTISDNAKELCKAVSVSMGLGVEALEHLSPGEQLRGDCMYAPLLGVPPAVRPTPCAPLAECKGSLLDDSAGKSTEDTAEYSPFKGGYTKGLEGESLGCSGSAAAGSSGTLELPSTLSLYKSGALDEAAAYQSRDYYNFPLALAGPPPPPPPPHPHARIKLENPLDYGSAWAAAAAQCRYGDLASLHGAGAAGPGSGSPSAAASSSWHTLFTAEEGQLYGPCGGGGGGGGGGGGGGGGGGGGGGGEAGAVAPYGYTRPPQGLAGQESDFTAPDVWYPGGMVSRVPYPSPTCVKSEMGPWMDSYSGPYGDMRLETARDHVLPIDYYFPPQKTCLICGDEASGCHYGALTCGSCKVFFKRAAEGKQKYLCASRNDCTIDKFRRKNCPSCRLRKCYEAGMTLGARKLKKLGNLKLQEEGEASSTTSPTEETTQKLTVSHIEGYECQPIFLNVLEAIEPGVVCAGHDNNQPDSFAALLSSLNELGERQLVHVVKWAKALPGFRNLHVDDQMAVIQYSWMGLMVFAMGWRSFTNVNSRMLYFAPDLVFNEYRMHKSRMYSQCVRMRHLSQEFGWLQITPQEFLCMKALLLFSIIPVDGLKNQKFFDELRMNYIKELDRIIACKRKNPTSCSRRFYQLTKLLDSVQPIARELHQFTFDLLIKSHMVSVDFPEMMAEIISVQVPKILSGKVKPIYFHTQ
From the text: as §1

[6] = biological target: T3, PXR (pregnane X receptor) (Homo sapiens, UniProt O75469); assay: as above; assay type: cell-based; conditions: Figure 9; with reference molecule; even at the highest concentrations
T3 sequence (O75469 1-434): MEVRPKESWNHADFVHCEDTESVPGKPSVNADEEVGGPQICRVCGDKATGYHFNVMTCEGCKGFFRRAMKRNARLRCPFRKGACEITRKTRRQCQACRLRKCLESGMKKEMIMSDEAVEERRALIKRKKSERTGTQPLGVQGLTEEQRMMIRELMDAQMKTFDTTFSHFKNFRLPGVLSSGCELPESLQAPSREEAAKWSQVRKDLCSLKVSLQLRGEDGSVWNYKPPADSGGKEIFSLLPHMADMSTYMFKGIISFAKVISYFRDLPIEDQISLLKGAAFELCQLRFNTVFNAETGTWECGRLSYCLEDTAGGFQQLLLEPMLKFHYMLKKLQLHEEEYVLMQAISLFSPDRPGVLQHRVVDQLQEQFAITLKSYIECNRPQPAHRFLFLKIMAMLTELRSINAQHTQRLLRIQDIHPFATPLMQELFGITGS
From the text: as §1

[7] = biological target: T1, ERα (récepteur œstrogène alpha); assay: Endocrine system: receptor activity in presence of compound (agonist effect); assay type: cell-based; conditions: Figure 6, C = 10 µM; even at the highest concentrations
From the text: as §1

[8] = biological target: T2, AR (récepteur des androgènes); assay: as above; assay type: cell-based; conditions: Figure 6, C = 10 µM; even at the highest concentrations
From the text: as §1

[9] = biological target: T3, PXR (pregnane X receptor); assay: as above; assay type: cell-based; conditions: Figure 6, C = 10 µM; even at the highest concentrations
From the text: as §1

[10] = Tableau 2, same test as for compounds 1 to 7 (λ 300 nm, P 8.32 W/m^2, one hour)
[11] = Tableau 1, UV exposure λ 300 nm, P 8.32 W/m^2, one hour
[12] = read-out: IC50 (nmol); antioxidant properties

COc1cc(C=C2C(=O)OC(C)(C)OC2=O)cc(OC)c1O
λmax ([1]; Tableau 2): 405 | IC50 ([2]; antioxidant properties; read-out: IC50 (nmol)): 3.58 nM | capacité antioxydante ([2]; result in words): remarquables | A (t=0 min) ([3]; Tableau 2): 0,24614 | Perte d'activité (%) [3, 10]: 11,43%

COc1ccc(C(=O)CC(=O)c2ccc(C(C)(C)C)cc2)cc1 [Avobenzone, reference compound]
λmax ([1]; Tableau 1): 350 | Perte d'activité (%) [3, 11]: 0,6% | A (t=0 min) ([3]; Tableau 1): 0,36735

COc1ccc(O)c(C(C)(C)C)c1 [BHA, reference compound]
IC50 [2, 12]: 6.51 nmol

Cc1cc(C(C)(C)C)c(O)c(C(C)(C)C)c1 [BHT, reference compound]
IC50 [2, 12]: 13.1 nmol

CC1(C)OC(=O)C(=Cc2ccco2)C(=O)O1 [Composé 1, 5-(2-Furanylmethylene)-2,2-dimethyl-1,3-dioxane-4,6-dione]
effet antagoniste sur le récepteur ERα [4]: n'empêchent pas l'activité des récepteurs envers les molécules de référence | effet antagoniste sur le récepteur AR [5]: n'empêchent pas l'activité des récepteurs envers les molécules de référence | effet antagoniste sur le récepteur PXR [6]: n'empêchent pas l'activité des récepteurs envers les molécules de référence | effet agoniste (activité du récepteur ERα) [7]: n'induisent pas une activité anormale des récepteurs | effet agoniste (activité du récepteur AR) [8]: n'induisent pas une activité anormale des récepteurs | effet agoniste (activité du récepteur PXR) [9]: n'induisent pas une activité anormale des récepteurs | λmax ([1]; Tableau 1): 361 | Perte d'activité (%) [3, 11]: < 5% | Perte d'activité (%) ([3]; Tableau 1, UV exposure λ 300 nm, P 8.32 W/m^2, one hour, listed as Composé (1)): 3.5% | A (t=0 min) ([3]; Tableau 1): 0.3381

CC1(C)OC(=O)C(=Cc2ccc(O)c(O)c2)C(=O)O1 [Composé 9]
λmax ([1]; Tableau 2): 398 | IC50 [2, 12]: 2.9 nmol | capacité antioxydante ([2]; result in words): remarquables | A (t=0 min) ([3]; Tableau 2): 0,26515 | Perte d'activité (%) [3, 10]: 6,37%

CC1(C)OC(=O)C(=Cc2ccc(O)cc2)C(=O)O1 [Composé 10, 5-(4-Hydroxybenzylidene)-2,2-dimethyl-1,3-dioxane-4,6-dione]
λmax ([1]; Tableau 2): 374 | IC50 (nmol) ([2]; antioxidant properties): Pas d'effet | A (t=0 min) ([3]; Tableau 2): 0,29431 | Perte d'activité (%) [3, 10]: 3,47%

Cc1cc(C=C2C(=O)OC(C)(C)OC2=O)oc1C [compound 2, 5-[(4,5-Dimethyl-2-furanyl)methylene]-2,2-dimethyl-1,3-dioxane-4,6-dione]
λmax ([1]; Tableau 1): 400 | Perte d'activité (%) [3, 11]: < 5% | Perte d'activité (%) ([3]; Tableau 1, UV exposure λ 300 nm, P 8.32 W/m^2, one hour, listed as Composé (2)): 4,2% | A (t=0 min) ([3]; Tableau 1): 0,37961

CCc1ccc(C=C2C(=O)OC(C)(C)OC2=O)o1 [compound 3, 5-[(5-Ethyl-2-furanyl)methylene]-2,2-dimethyl-1,3-dioxane-4,6-dione]
λmax ([1]; Tableau 1): 374 | Perte d'activité (%) [3, 11]: < 5% | Perte d'activité (%) ([3]; Tableau 1, UV exposure λ 300 nm, P 8.32 W/m^2, one hour, listed as Composé (3)): 5,1% | A (t=0 min) ([3]; Tableau 1): 0,31307

CC1(C)OC(=O)C(=Cc2cc3ccccc3o2)C(=O)O1 [compound 5, 5-(2-benzofuranylmethylene)-2,2-dimethyl-1,3-dioxane-4,6-dione]
λmax ([1]; Tableau 1): 386 | Perte d'activité (%) [3, 11]: 28,7% | A (t=0 min) ([3]; Tableau 1): 0,32310

CC(=O)OCc1ccc(C=C2C(=O)OC(C)(C)OC2=O)o1 [compound 6, 5-[[5-((Acetyloxy)methyl)-2-furanyl]methylene]-2,2-dimethyl-1,3-dioxane-4,6-dione]
λmax ([1]; Tableau 1): 366 | Perte d'activité (%) [3, 11]: 12,0% | A (t=0 min) ([3]; Tableau 1): 0,28728

CC1(C)OC(=O)C(=Cc2ccc(C=C3C(=O)OC(C)(C)OC3=O)o2)C(=O)O1 [compound 7, 5,5'-(2,5-furandiyldimethylidyne)bis-2,2-dimethyl-1,3-dioxane-4,6-dione]
λmax ([1]; Tableau 1): 406 - 426 | Perte d'activité (%) [3, 11]: 12,4% | A (t=0 min) ([3]; Tableau 1): 0,47642

CC1(C)OC(=O)C(=CC=Cc2ccco2)C(=O)O1 [compound 19, 5-[3-(2-furanyl)-2-propen-1-ylidene]-2,2-dimethyl-1,3-Dioxane-4,6-dione]
absorption UVA et lumière bleue (spectre UV-Vis) ([1]; in ethanol at 10^-5 mol/L, Figure 2): comparables à ceux obtenus avec les composés 1 à 7
